The numbers were not newly measured in patent US12697345B2, “Microparticles containing stabilized CBD oil, and methods for the production thereof” (priority 2021, dated 2026), which cites them from elsewhere.

The structures appear in SMILES notation.

The conditions of series [1]: 600 mg oral CBD, healthy male volunteers.
The conditions of series [2]: estimated.
For series [3] the following is noted: aerosolized.

As for `C=C(C)[C@@H]1CCC(C)=CC1c1c(O)cc(CCCCC)cc1O` (stereo partly drawn) [CBD, 2-[(6R)-3-methyl-6-prop-1-en-2-ylcyclohex-2-en-1-yl]-5-pentylbenzene-1,3-diol], the “mean±SD whole blood level of CBD at 1 hour” value in series [1] (1 h) is listed as 0.36 (0.64) ng/mL. In series [1] (2 h), the “mean±SD whole blood level of CBD at 2 hours” value is recorded as 1.62 (2.98) ng/mL. Moreover, the “mean±SD whole blood level of CBD at 3 hours” value in series [1] (3 h) was 3.4 (6.42) ng/mL. Further, the “Bioavailability from oral delivery” value in series [2] is given as 6%. Further, the “Time to peak plasma concentrations” value in series [3] is 5 to 10 min.
